# Measured values from patent US20220323400A1, “INHIBITORS OF SGLT AND USES THEREOF” (The Regents of the University of Michigan, priority 2019, published 2022).
# Legend:
# CF rabbits [1] = experiment: Urinary glucose excretion in CF rabbits treated with LX4211; format: in vivo, rabbit; conditions: 15 mg/kg/day daily gavage
# Method: (§1) ) has beneficial effects on treating CF, 5 CF rabbits were daily gavaged with LX4211 (15 mg/kg/day) for 4 weeks. The intravenous glucose tolerance test (IVGTT) and insulin tolerance test (ITT) were performed before treatment and at 4 weeks after treatment. Urine was collected daily to assess urinary glucose excretion. Blood was collected biweekly for the analysis of chemical panels including glucose, insulin, liver function, kidney function, lipid profiles and electrolytes. At the end of the experiment, the organ tissues of CF rabbits were collected for histology staining.
# CF rabbits [2] = experiment: IVGTT in CF rabbits prior to and after Sota treatment; format: in vivo, rabbit; conditions: CF rabbits (n=6), 15 mg/kg/day daily gavage 4 weeks, vs non-treatment, FIGS. 10B & C
# Method: Experiments were conducted that next proceeded to treat CF rabbits (n=6) with Sota (15 mg/kg/day) by daily gavage for 4 weeks (FIG. 10A). The IVGTT test was performed prior to and 4 weeks after treatment.
# CF rabbits [3] = experiment: Blood chemical panels in CF rabbits treated with LX4211; format: in vivo, rabbit
# Method: as §1
# Abnormalities of serum ALP, CPK and Calcium were also detected in CF rabbits.
# CF rabbits [4] = experiment: Survival length of CF rabbits treated with LX4211; format: in vivo, rabbit; conditions: FIG. 3
# WT rabbits = experiment: Urine sugar levels in WT rabbits after Sota treatment; format: in vivo, rabbit; conditions: WT rabbits (n=2)
# Method: Experiments were conducted that first examined the physiological responses of rabbits to Sota by measuring the urine sugar levels to assess urinary glucose excretion (FIG. 9). Sota was given to WT rabbits (n=2) daily for five days. […] This confirmed that rabbits respond to Sota similarly as rodents and human patients.
# CF rabbits [5] = experiment: Intravenous glucose tolerance test (IVGTT) in CF rabbits treated with LX4211; format: in vivo, rabbit; conditions: FIG. 1
# Method: as §1
# CF rabbits [6] = format: in vivo, rabbit
# Method: as §1
# Because most CF rabbits eventually die of gut obstruction for which abdominal hardening (which can be felt by palpation) has been used as a clinical sign, such softening may indicate beneficial effects on alleviating GI obstruction, although further studies are needed to confirm this predication.
# CF rabbits [7] = experiment: Lifespan (survival curve) of Sota-treated CF rabbits; format: in vivo, rabbit; conditions: treatment starting on Day 49 of age
# Description: This is further supported by the elongated lifespan of Sota-treated CF rabbits. […] These findings indicate that contrary to the beliefs by many, the SGLT inhibitor drugs are indicative of bringing benefits with minimal risks to CF patients.
# CF rabbits [8] = experiment: Blood chemistry of CF rabbits treated with Sota for 10 weeks; format: in vivo, rabbit; conditions: 5 CF rabbits treated 10 weeks vs untreated control group, FIG. 11
# Description: It is known that many CF patients show abnormalities in their blood chemistry tests. Blood chemistry in CF rabbits was also examind. In one study, blood was collected from 5 CF rabbits for the analysis of chemical panels including electrolytes, glucose and other metabolic parameters, and compared with those of WT rabbits (n=15). CF rabbits presented many abnormalities in metabolic parameters including lower serum potassium (WT 4.35±0.25 vs. CF 3.14±0.3, p<0.05), higher triglyceride (WT 75.8±69.5 vs. CF 447.0±76.6, p<0.05), cholesterol (WT 31.6±9.76 vs. CF 177.2±206.3, p<0.05) and glucose (WT 110.4±9.99 vs. CF 160.6±37.5, p<0.05). Abnormalities of serum ALP, CPK and Calcium were also detected in CF rabbits.
# To evaluate if Sota has any effects on the blood chemistry parameters of CF rabbits, experiments were conducted wherein 5 CF rabbits were treated with Sota for 10 weeks.
# [9] = rabbit, in vivo
substance,measurement,setting,value
Sotagliflozin [LX4211],urine glucose levels,CF rabbits [1],spiked starting D1 after the treatment
same,blood glucose elimination rate (IVGTT),CF rabbits [2],significantly higher
same,CPK,"CF rabbits [3]; 15 mg/kg/day, FIG. 4",significant rescue effects
same,Calcium,"CF rabbits [3]; 15 mg/kg/day, FIG. 4",significant rescue effects
same,cholesterol,"CF rabbits [3]; 15 mg/kg/day, FIG. 4",significant rescue effects
same,triglyceride,"CF rabbits [3]; 15 mg/kg/day, FIG. 4",significant rescue effects
same,hyperglycemia (glucose),"CF rabbits [3]; 15 mg/kg/day, FIG. 4, FIG. 5",significantly attenuated
same,hypokalemia (serum potassium),"CF rabbits [3]; 15 mg/kg/day, FIG. 4, FIG. 5",significantly attenuated
same,ALB (Albumin),CF rabbits [3]; FIG. 6,restored
same,TPRO (Total Protein),CF rabbits [3]; FIG. 6,restored
same,survival length,CF rabbits [4],improved survival length
same,urine sugar level upon retrieval of the drug,"WT rabbits; D7, FIG. 9",immediately returned to normal
same,urine sugar level during treatment,"WT rabbits; daily for five days, D1-D5, FIG. 9",spike of urine sugar level was seen the second day (D1) and remained high during the treatment days
same,glucose tolerance,"CF rabbits [5]; CF rabbits, 15 mg/kg/day, before vs 4 weeks after treatment",restored glucose tolerance
same,GTT response of one CF rabbit with signs of CF related diabetes (CFRD),"CF rabbits [5]; one CF rabbit, prior to vs after treatment",restored to normal
same,daily abdominal palpation,"CF rabbits [6]; CF rabbits, 15 mg/kg/day daily gavage, abdominal hardening is a clinical sign of gut obstruction",softening of the abdominal
same,adverse response to treatment,"CF rabbits [6]; rabbit, in vivo, 15 mg/kg/day",no obvious adverse response
same,median lifespan,"CF rabbits [7]; CF rabbits (n=10), FIG. 12 right panel",> 150 days
same,number of treated CF rabbits that lived beyond 150 days,CF rabbits [7]; of n=10 CF rabbits,6
same,ALP,CF rabbits [8],significantly improved
same,CPK,CF rabbits [8],significantly improved
same,Chol,CF rabbits [8],significantly improved
same,Glucose,CF rabbits [8],significantly improved
same,K+,CF rabbits [8],significantly improved
same,Trig,CF rabbits [8],significantly improved
same,weight gain,[9],gained weight at a similar rate
